In patent US20220324835A1 (Nurix Therapeutics, Inc., priority 2018, published 2022):

Key:
T-cell [1] = test: CD25 cell surface staining on T-cells co-stimulated with anti-CD3 and anti-CD28 antibody (Biological Example 2); format: cell-based, human; conditions: Homo sapiens, T-cell, primary human total T-cells, baseline = anti-CD3/anti-CD28 stimulated cells without inhibitor, read-out: CD25 staining, Anti-CD3/Anti-CD28 stimulation, fold change over baseline; for fold induction at 0.3 µM: 0.3 μM compound; for fold induction at 1 µM: 1 μM compound; for fold induction at 4 µM: 4 μM compound
Summary of the method: (§1)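 Values are fold-change over baseline: readings (IL-2 release, CD25 staining) from inhibitor-treated T-cells divided against untreated cells […]. No detailed procedure stated.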

Cbl-b [2] = biological target: T1, Cbl-b (Homo sapiens, UniProt Q13191); test: Cbl-b inhibition assay (Cbl-b activity assay, FRET, Biological Example 1; 100 mM NaCl, 60 nM Src kinase); format: biochemical; conditions: upper bound stated in text lists; read-out: IC50 values in the Cbl-b inhibition assay of Biological Example 1
Summary of the method: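 Binding-based Cbl-b activity assay. Src-phosphorylated, N-terminally biotin-Avi-tagged Cbl-b recruits labelled UbcH5B-Ub, and proximity to streptavidin-terbium yields FRET.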

T-cell [3] = test: IL-2 secretion from T-cells co-stimulated with anti-CD3 and anti-CD28 antibody (Biological Example 2); format: cell-based, human; conditions: Homo sapiens, T-cell, primary human total T-cells, baseline = anti-CD3/anti-CD28 stimulated cells without inhibitor, read-out: IL-2 secretion, Anti-CD3/Anti-CD28 stimulation, fold change over baseline; for fold induction at 0.3 µM: 0.3 μM compound; for fold induction at 1 µM: 1 μM compound; for fold induction at 4 µM: 4 μM compound
Summary of the method: as §1

Cbl-b [4] = biological target: T1, Cbl-b; test: Cbl-b activity assay (Cbl-b inhibition assay), TR-FRET of Cbl-b interaction with UbcH5B-Ub; format: biochemical; conditions: assay buffer with 100 mM NaCl, 60 nM Src kinase; read-out: Cbl-b activity IC50
Summary of the method: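 Compound-treated Cbl-b was incubated 1.5 h with Src kinase (60 nM final; 30 nM for asterisked values, which also used 50 mM instead of 100 mM NaCl), 1 mM ATP and 5 mM MgCl2. Binding to fluorescent Ub-loaded UbcH5B (C85K mutant) was then read by TR-FRET after 1 h more.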

T-cell [5] = test: IL-2 secretion from T-cells stimulated with anti-CD3 antibody alone (Biological Example 2); format: cell-based; conditions: primary human total T-cells, read-out: IL-2 secretion, Anti-CD3 stimulation, fold change over baseline; for fold induction at 1 µM: 1 μM compound; for fold induction at 8 µM: 8 μM compound
T-cell [6] = test: CD25 cell surface staining on T-cells stimulated with anti-CD3 antibody alone (Biological Example 2); format: cell-based; conditions: primary human total T-cells, baseline = anti-CD3/anti-CD28 stimulated cells without inhibitor, read-out: CD25 staining, Anti-CD3 stimulation, fold change over baseline; for fold induction at 1 µM: 1 μM compound; for fold induction at 8 µM: 8 μM compound

T1 sequence (Q13191 36-427): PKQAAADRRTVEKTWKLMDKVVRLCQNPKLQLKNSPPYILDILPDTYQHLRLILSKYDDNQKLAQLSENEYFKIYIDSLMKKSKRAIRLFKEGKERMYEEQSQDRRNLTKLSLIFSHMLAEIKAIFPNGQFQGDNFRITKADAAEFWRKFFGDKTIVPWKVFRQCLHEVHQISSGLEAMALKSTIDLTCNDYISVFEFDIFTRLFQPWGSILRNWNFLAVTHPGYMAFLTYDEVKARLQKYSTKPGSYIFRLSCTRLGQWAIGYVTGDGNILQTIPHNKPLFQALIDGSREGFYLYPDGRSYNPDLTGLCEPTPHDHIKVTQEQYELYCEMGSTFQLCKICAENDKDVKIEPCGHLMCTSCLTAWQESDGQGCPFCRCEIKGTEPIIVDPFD

Row | SMILES | fold induction at 0.3 µM (T-cell [1]) | fold induction at 1 µM (T-cell [1]) | fold induction at 4 µM (T-cell [1]) | IC50 (Cbl-b [2]) [µM] | fold induction at 0.3 µM (T-cell [3]) | fold induction at 1 µM (T-cell [3]) | fold induction at 4 µM (T-cell [3]) | IC50 (Cbl-b [4]) [µM] | fold induction at 1 µM (T-cell [5]) | fold induction at 8 µM (T-cell [5]) | fold induction at 1 µM (T-cell [6]) | fold induction at 8 µM (T-cell [6])
1 | C[C@H](c1cc2c(c(C(F)(F)F)c1)CN(c1cccc(C3(Cc4nncn4C)COC3)c1)C2=O)N1CCC(F)(F)C1 [Compound 419, (R)-6-(1-(3,3-difluoropyrrolidin-1-yl)ethyl)-2-(3-(3-((4-methyl-4H-1,2,4-triazol-3-yl)methyl)oxetan-3-yl)phenyl)-4-(trifluoromethyl)isoindolin-1-one] | 1.01 to 1.3 | 1.31 to 1.5 | 1.31 to 1.5 | ≤ 0.1 | 2.51 to 5 | > 7.5 | > 7.5 | < 0.1 | 0.151 to 0.2 | > 0.201 | > 1 | > 1
2 | C[C@@H](c1cc2c(c(C(F)(F)F)c1)CN(c1cccc(C3(Cc4nncn4C)COC3)c1)C2=O)N1CCC(F)(F)C1 [Compound 420, (S)-6-(1-(3,3-difluoropyrrolidin-1-yl)ethyl)-2-(3-(3-((4-methyl-4H-1,2,4-triazol-3-yl)methyl)oxetan-3-yl)phenyl)-4-(trifluoromethyl)isoindolin-1-one] | 1.31 to 1.5 | 1.31 to 1.5 | 1.31 to 1.5 | ≤ 0.1 | 2.51 to 5 | > 7.5 | > 7.5 | < 0.1 | 0.151 to 0.2 | > 0.201 | > 1 | > 1
3 | Cn1cnnc1CC1(c2cccc(N3Cc4c(cc(CN5CC(C#N)C5)cc4C(F)(F)F)C3=O)c2)COC1 [Compound 423, 1-((2-(3-(3-((4-methyl-4H-1,2,4-triazol-3-yl)methyl)oxetan-3-yl)phenyl)-3-oxo-7-(trifluoromethyl)isoindolin-5-yl)methyl)azetidine-3-carbonitrile] | 1.01 to 1.3 | 1.01 to 1.3 | 1.31 to 1.5 | ≤ 0.1 | 2.51 to 5 | 5 to 7.5 | > 7.5 | < 0.1 | 0.151 to 0.2 | > 0.201 | 0.801 to 1 | > 1
4 | Cn1cnnc1CC1(c2cccc(N3Cc4c(cc(CN5CC(C)(F)C5)cc4C(F)(F)F)C3=O)c2)COC1 [Compound 424, 6-((3-fluoro-3-methylazetidin-1-yl)methyl)-2-(3-(3-((4-methyl-4H-1,2,4-triazol-3-yl)methyl)oxetan-3-yl)phenyl)-4-(trifluoromethyl)isoindolin-1-one] | 1.31 to 1.5 | 1.51 to 1.75 | 1.51 to 1.75 | ≤ 0.1 | > 7.5 | > 7.5 | > 7.5 | < 0.1 | > 0.201 | > 0.201 | > 1 | > 1
5 | Cn1cnnc1CC1(c2cccc(N3Cc4c(cc(CN5CC(C)(C#N)C5)cc4C(F)(F)F)C3=O)c2)COC1 [Compound 425, 3-methyl-1-((2-(3-(3-((4-methyl-4H-1,2,4-triazol-3-yl)methyl)oxetan-3-yl)phenyl)-3-oxo-7-(trifluoromethyl)isoindolin-5-yl)methyl)azetidine-3-carbonitrile] | 1.01 to 1.3 | 1.31 to 1.5 | 1.51 to 1.75 | ≤ 0.1 | 2.51 to 5 | > 7.5 | > 7.5 | < 0.1 | 0.151 to 0.2 | 0.051 to 0.1 | 0.601 to 0.8 | < 0.6
6 | Cn1cnnc1CC1(c2cccc(N3Cc4c(cc(CN5CCCC5=O)cc4C(F)(F)F)C3=O)c2)COC1 [Compound 426, 2-(3-(3-((4-methyl-4H-1,2,4-triazol-3-yl)methyl)oxetan-3-yl)phenyl)-6-((2-oxopyrrolidin-1-yl)methyl)-4-(trifluoromethyl)isoindolin-1-one] | 1.01 to 1.3 | 1.01 to 1.3 | 1.01 to 1.3 | ≤ 0.1 | 1.01 to 2.5 | 1.01 to 2.5 | 2.51 to 5 | < 0.1 | 0.151 to 0.2 | > 0.201 | > 1 | > 1
7 | C[C@H]1C=CCN1Cc1cc2c(c(C(F)(F)F)c1)CN(c1cccc(C3(Cc4nncn4C)COC3)c1)C2=O [Compound 427] | 1.31 to 1.5 | 1.51 to 1.75 | 1.51 to 1.75 | ≤ 0.1 | > 7.5 | > 7.5 | > 7.5 | < 0.1 | > 0.201 | > 0.201 | > 1 | > 1
8 | Cn1cnnc1CC1(c2cccc(N3Cc4c(cc(CN5CC(C(=O)O)C5)cc4C(F)(F)F)C3=O)c2)COC1 [Compound 428] | 1.01 to 1.3 | 1.01 to 1.3 | 1.01 to 1.3 | ≤ 0.1 | 1.01 to 2.5 | 1.01 to 2.5 | 1.01 to 2.5 | < 0.1 | 0.151 to 0.2 | > 0.201 | 0.801 to 1 | > 1
9 | CC(c1cc2c(c(C(F)(F)F)c1)CN(c1cccc(C3(Cc4nncn4C)COC3)c1)C2=O)N1CC(S(C)(=O)=O)C1 (stereo not drawn) [Compound 430, 2-(3-(3-((4-methyl-4H-1,2,4-triazol-3-yl)methyl)oxetan-3-yl)phenyl)-6-(l-(3-(methylsulfonyl)azetidin-1-yl)ethyl)-4-(trifluoromethyl)isoindolin-1-one] | 1.01 to 1.3 | 1.01 to 1.3 |  | ≤ 0.1 | 1.01 to 2.5 | 1.01 to 2.5 |  | < 0.1 | 0.101 to 0.15 |  | 0.601 to 0.8 | 
10 | Cn1cnnc1CC1(c2cccc(N3Cc4c(cc(CN5CCOCC5)cc4C(F)(F)F)C3=O)c2)COC1 [Compound 431, 2-(3-{3-[(4-methyl-4H-1,2,4-triazol-3-yl)methyl]oxetan-3-yl}phenyl)-6-[(morpholin-4-yl)methyl]-4-(trifluoromethyl)-2,3-dihydro-1H-isoindol-1-one] | 1.31 to 1.5 | 1.31 to 1.5 |  | ≤ 0.1 | 2.51 to 5 | > 7.5 |  | < 0.1 | > 0.201 |  | > 1 | 
11 | Cn1cnnc1CC1(c2cccc(N3Cc4c(cc(CN5CCCC56COC6)cc4C(F)(F)F)C3=O)c2)COC1 [Compound 433, 2-(3-{3-[(4-methyl-4H-1,2,4-triazol-3-yl)methyl]oxetan-3-yl}phenyl)-6-({2-oxa-5-azaspiro[3,4]octan-5-yl}methyl)-4-(trifluoromethyl)-2,3-dihydro-1H-isoindol-1-one] | 1.01 to 1.3 | 1.31 to 1.5 |  | ≤ 0.1 | 1.01 to 2.5 | 5 to 7.5 |  | < 0.1 | 0.151 to 0.2 |  | 0.801 to 1 | 
12 | Cn1cnnc1CC1(c2cccc(N3Cc4c(cc(CN5CCS(=O)(=O)CC5)cc4C(F)(F)F)C3=O)c2)COC1 [Compound 434, 4-{[2-(3-{3-[(4-methyl-4H-1,2,4-triazol-3-yl)methyl]oxetan-3-yl}phenyl)-3-oxo-7-(trifluoromethyl)-2,3-dihydro-1H-isoindol-5-yl]methyl}-1λ^6-thiomorpholine-1,1-dione] | 1.01 to 1.3 | 1.01 to 1.3 |  | ≤ 0.1 | 2.51 to 5 | 2.51 to 5 |  | < 0.1 | 0.101 to 0.15 |  | > 1 | 
